Reference: patent US20220380374A1, “1,4-DIHYDROBENZO[D]PYRAZOLO[3,4-F][1,3]DIAZEPINE DERIVATIVES AND RELATED COMPOUNDS AS LRRK2, NUAK1 AND/OR TYK2 KINASE MODULATORS FOR THE TREATMENT OF E.G. AUTOIMMUNE DISEASE” (Origenis GMBH, priority 2019, published 2022)

Assays:
[1] = biological target: T1, wt human NUAK1, full length (Homo sapiens, UniProt O60285); assay: TR-FRET LanthaScreen Eu Kinase Binding Assay, NUAK1; details: 5 nM Kinase Tracer 236; read-out: IC50, inhibitory activity toward NUAK1
T1 construct: 8 nM wt human NUAK1, full length (ThermoFisher/USA); purchased ThermoFisher/USA
T1 sequence (O60285 1-661): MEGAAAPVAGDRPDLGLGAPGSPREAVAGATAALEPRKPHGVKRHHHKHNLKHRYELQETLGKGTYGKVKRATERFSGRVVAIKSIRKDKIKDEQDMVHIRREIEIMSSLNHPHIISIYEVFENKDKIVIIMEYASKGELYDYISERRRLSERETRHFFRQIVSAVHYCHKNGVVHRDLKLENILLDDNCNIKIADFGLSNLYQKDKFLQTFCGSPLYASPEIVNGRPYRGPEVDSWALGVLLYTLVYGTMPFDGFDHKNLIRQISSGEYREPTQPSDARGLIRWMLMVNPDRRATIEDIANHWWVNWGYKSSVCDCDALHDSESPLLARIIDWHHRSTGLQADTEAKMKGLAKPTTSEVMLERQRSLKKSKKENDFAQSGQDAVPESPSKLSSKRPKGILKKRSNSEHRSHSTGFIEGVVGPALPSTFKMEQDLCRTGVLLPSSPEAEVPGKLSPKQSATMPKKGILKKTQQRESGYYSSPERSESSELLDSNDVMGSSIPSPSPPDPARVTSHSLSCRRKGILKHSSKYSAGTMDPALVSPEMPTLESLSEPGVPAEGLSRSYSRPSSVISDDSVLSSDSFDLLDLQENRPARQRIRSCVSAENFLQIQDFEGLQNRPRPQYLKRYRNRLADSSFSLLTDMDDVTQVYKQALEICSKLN
Outline: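 TR-FRET tracer-displacement binding with 8 nM full-length wild-type human NUAK1, 2 nM Eu-anti-His antibody and 5 nM Kinase Tracer 236 in 1× Kinase Buffer A (final). Compound, kinase/antibody and tracer incubated 1 h at room temperature; emission ratios analysed per kit protocol.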

[2] = biological target: T2, wt human TYK2, catalytic site (Homo sapiens, UniProt P29597); assay: HTRF KinEASE assay, TYK2; type: biochemical; details: 1 μM ATP; read-out: IC50, inhibitory activity toward TYK2
T2 construct: 2 nM wt human TYK2, catalytic site (SignalChem/CAN); purchased SignalChem/CAN
T2 sequence (P29597 897-1176 limits assumed): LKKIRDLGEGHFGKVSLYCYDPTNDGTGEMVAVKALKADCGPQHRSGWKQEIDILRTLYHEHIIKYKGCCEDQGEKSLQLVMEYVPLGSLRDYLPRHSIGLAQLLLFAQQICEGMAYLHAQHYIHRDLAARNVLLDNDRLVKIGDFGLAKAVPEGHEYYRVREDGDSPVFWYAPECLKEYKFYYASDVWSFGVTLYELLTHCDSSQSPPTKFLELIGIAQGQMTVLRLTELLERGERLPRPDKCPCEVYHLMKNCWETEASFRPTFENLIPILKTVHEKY
Experimental: Basic protocol for HTRF KinEASE assay (Cisbio/FRA) inhibitor studies involved two steps: Enzymatic step: Addition of 4 μl of test compound in corresponding DMSO dilutions, 4 μl of kinase/substrate mixture, 2 μl of ATP into 384 well small volume plates. Incubation for at least 30 minutes at room temperature.
Detection step: Addition of 5 μl antibody and 5 μl streptavidin-XL665, read plate after 60 minutes. Data analysis of emission ratios according to KinEASE assay protocol.
Kinase and assay components were adjusted to final concentrations according to the kit protocol. For TYK2: 2 nM wt human TYK2, catalytic site (SignalChem/CAN), 1 μM HTRF KinEASE-TK Substrate-biotin, 1 μM ATP in 1× Kinase Buffer

| SMILES | IC50 [1] | IC50 [2] |
| --- | --- | --- |
| Cc1ccc2c(c1)-c1[nH]ncc1N=C(c1c(F)cc(NCCF)cc1F)N2 [Compound 126, 3,5-difluoro-N-(2-fluoroethyl)-4-(9-methyl-1,6-dihydrobenzo[d]pyrazolo[3,4-f][1,3]diazepin-5-yl)aniline] | 10 to 100 nM | 100 to 1000 nM |
| COc1cc2c(cn1)NC(c1c(F)cccc1F)=Nc1cn[nH]c1-2 [Compound 127, 5-(2,6-difluorophenyl)-9-methoxy-1,6-dihydropyrazolo[4,3-d]pyrido[4,3-f][1,3]diazepine] | 10 to 100 nM | 10 to 100 nM |
| Fc1cccc(F)c1C1=Nc2ccccc2-c2[nH]nc(Cl)c2N1 [Compound 135, 3-chloro-5-(2,6-difluorophenyl)-1,4-dihydrobenzo[d]pyrazolo[3,4-f][1,3]diazepine] | 10 to 100 nM | 10 to 100 nM |
| Cc1cc(F)c2c(c1)-c1[nH]ncc1NC(c1c(F)cccc1F)=N2 [Compound 138, 5-(2,6-difluorophenyl)-7-fluoro-9-methyl-1,4-dihydrobenzo [d]pyrazolo[3,4-f][1,3]diazepine] | 10 to 100 nM | 100 to 1000 nM |
| Cc1ccc2c(c1)-c1[nH]nc(Cl)c1NC(c1c(F)cccc1F)=N2 [Compound 143, 3-chloro-5-(2,6-difluorophenyl)-9-methyl-1,4-dihydrobenzo[d]pyrazolo [3,4-f][1,3]diazepine] | 10 to 100 nM | 100 to 1000 nM |
| CSc1n[nH]c2c1NC(c1c(F)cccc1F)=Nc1ccccc1-2 [Compound 146, 5-(2,6-difluorophenyl)-3-(methylthio)-1,4-dihydrobenzo[d]pyrazolo [3,4-f][1,3]diazepine] | 100 to 1000 nM | 100 to 1000 nM |
| Fc1cccc(F)c1C1=Nc2cn[nH]c2-c2cc(Cl)ncc2N1 [Compound 147, 9-chloro-5-(2,6-difluorophenyl)-1,6-dihydropyrazolo[4,3-d]pyrido[4,3-f][1,3]diazepine] | 10 to 100 nM | 10 to 100 nM |
| OCCNc1cc(F)c(C2=Nc3c[nH]nc3-c3ccccc3N2)c(F)c1 [Compound 150, 2-((4-(2,6-dihydrobenzo[d]pyrazolo[3,4-f][1,3]diazepin-5-yl)-3,5-difluorophenyl)amino)ethan-1-ol] | 100 to 1000 nM | 100 to 1000 nM |
| Cc1ccc2c(c1)-c1[nH]ncc1NC(c1c(Cl)cccc1Cl)=N2 [Compound 152, 5-(2,6-dichlorophenyl)-9-methyl-1,4-dihydrobenzo[d]pyrazolo[3,4-f][1,3]diazepine] | 100 to 1000 nM | 100 to 1000 nM |
| Fc1cccc(Cl)c1C1=Nc2cc(OC3CCOCC3)ccc2-c2[nH]ncc2N1 [Compound 155, 5-(2-chloro-6-fluorophenyl)-8-((tetrahydro-2H-pyran-4-yl)oxy)-1,4-dihydrobenzo[d]pyrazolo[3,4-f][1,3]diazepine] | 10 to 100 nM | 10 to 100 nM |
| Cc1cc2c(cc1C(=O)O)NC(c1c(F)cccc1F)=Nc1cn[nH]c1-2 [Compound 156, 5-(2,6-difluorophenyl)-9-methyl-1,6-dihydrobenzo[d]pyrazolo[3,4-f][1,3]diazepine-8-carboxylic acid] | 100 to 1000 nM | 10 to 100 nM |
| Cc1cc2c(cc1C(=O)NC1CCOCC1)N=C(c1c(F)cccc1F)Nc1cn[nH]c1-2 [Compound 157, 5-(2,6-difluorophenyl)-9-methyl-N-(tetrahydro-2H-pyran-4-yl)-1,4-dihydrobenzo[d]pyrazolo[3,4-f][1,3]diazepine-8-carboxamide] | 100 to 1000 nM | < 10 nM |
| COc1ccc2c(c1)N=C(c1c(F)cccc1Cl)Nc1cn[nH]c1-2 [Compound 158, 5-(2-chloro-6-fluorophenyl)-8-methoxy-1,4-dihydrobenzo[d]pyrazolo[3,4-f][1,3]diazepine] | 10 to 100 nM | 10 to 100 nM |
| Fc1cccc(F)c1C1=Nc2cc(-c3ccn[nH]3)ccc2-c2[nH]ncc2N1 [Compound 159, 5-(2,6-difluorophenyl)-8-(1H-pyrazol-5-yl)-1,4-dihydrobenzo[d]pyrazolo[3,4-f][1,3]diazepine] | 10 to 100 nM | 10 to 100 nM |
| Fc1cccc(Cl)c1C1=Nc2cc(-c3ccn[nH]3)ccc2-c2[nH]ncc2N1 [Compound 160, 5-(2-chloro-6-fluorophenyl)-8-(1H-pyrazol-5-yl)-1,4-dihydrobenzo[d]pyrazolo[3,4-f][1,3]diazepine] | 10 to 100 nM | 10 to 100 nM |
| Cc1ccc2c(c1)-c1[nH]ncc1NC(c1c(F)cccc1Br)=N2 [Compound 161, 5-(2-bromo-6-fluorophenyl)-9-methyl-1,4-dihydrobenzo[d]pyrazolo[3,4-f][1,3]diazepine] | 10 to 100 nM | 100 to 1000 nM |

Continued, values first:

| IC50 [1] | IC50 [2] | SMILES |
| --- | --- | --- |
| 10 to 100 nM | < 10 nM | CC(=O)Nc1cccc(-c2ccc3c(c2)N=C(c2c(F)cccc2F)Nc2cn[nH]c2-3)c1 [Compound 162, N-(3-(5-(2,6-difluorophenyl)-1,4-dihydrobenzo[d]pyrazolo[3,4-f][1,3]diazepin-8-yl)phenyl)acetamide] |
| 100 to 1000 nM | 100 to 1000 nM | Cc1ccc2c(c1)-c1[nH]ncc1NC(c1c(F)cccc1I)=N2 [Compound 163, 5-(2-fluoro-6-iodophenyl)-9-methyl-1,4-dihydrobenzo[d]pyrazolo[3,4-f][1,3]diazepine] |
| 10 to 100 nM | 10 to 100 nM | COC(=O)Nc1ccc2c(c1)N=C(c1c(F)cccc1F)Nc1c[nH]nc1-2 [Compound 164, methyl(5-(2,6-difluorophenyl)-2,4-dihydrobenzo[d]pyrazolo[3,4-f][1,3]diazepin-8-yl)carbamate] |
| < 10 nM | 100 to 1000 nM | COC(=O)Nc1ccc2c(c1)-c1[nH]ncc1NC(c1c(F)cccc1F)=N2 [Compound 165, methyl(5-(2,6-difluorophenyl)-1,4-dihydrobenzo[d]pyrazolo[3,4-f][1,3]diazepin-9-yl)carbamate] |
| 10 to 100 nM | 100 to 1000 nM | Cc1cc(F)c2c(c1)-c1[nH]nc(Cl)c1NC(c1c(F)cccc1F)=N2 [Compound 166, 3-chloro-5-(2,6-difluorophenyl)-7-fluoro-9-methyl-1,4-dihydrobenzo[d]pyrazolo[3,4-f][1,3]diazepine] |
| 10 to 100 nM | 100 to 1000 nM | CCc1cc(F)c2c(c1)-c1[nH]nc(Cl)c1NC(c1c(F)cccc1F)=N2 [Compound 168, 3-chloro-5-(2,6-difluorophenyl)-9-ethyl-7-fluoro-1,4-dihydrobenzo[d]pyrazolo[3,4-f][1,3]diazepine] |
| 10 to 100 nM | 10 to 100 nM | COc1ccc2c(c1F)N=C(c1c(F)cccc1F)Nc1cn[nH]c1-2 [Compound 169, 5-(2,6-difluorophenyl)-7-fluoro-8-methoxy-1,4-dihydrobenzo[d]pyrazolo[3,4-f][1,3]diazepine] |
| 10 to 100 nM | 10 to 100 nM | Fc1cccc(F)c1C1=Nc2c(Cl)n[nH]c2-c2cc(Cl)ncc2N1 [Compound 171, 3,9-dichloro-5-(2,6-difluorophenyl)-1,6-dihydropyrazolo[4,3-d]pyrido[4,3-f][1,3]diazepine] |
| 100 to 1000 nM | 100 to 1000 nM | Cc1ccc2c(c1)-c1[nH]ncc1N=C(c1c(C)cccc1F)N2 [Compound 172, 5-(2-fluoro-6-methylphenyl)-9-methyl-1,6-dihydrobenzo[d]pyrazolo[3,4-f][1,3]diazepine] |
| 10 to 100 nM | 100 to 1000 nM | Cc1ccc2c(c1)-c1[nH]ncc1NC(c1c(F)ccc(F)c1F)=N2 [Compound 182, 9-methyl-5-(2,3,6-trifluorophenyl)-1,4-dihydrobenzo[d]pyrazolo [3,4-f][1,3]diazepine] |
| 10 to 100 nM | 100 to 1000 nM | Cc1ccc2c(c1)-c1[nH]ncc1NC(c1c(F)ccc(Br)c1Cl)=N2 [Compound 183, 5-(3-bromo-2-chloro-6-fluorophenyl)-9-methyl-1,4-dihydrobenzo [d]pyrazolo[3,4-f][1,3]diazepine] |
